Assay results from patent publication US20230285377A1, “KCNT1 INHIBITORS AND METHODS OF USE” (Praxis Precision Medicines, Inc., priority 2020, published 2023).

Target: KCNT1 (KNa1.1, Slack) (Homo sapiens (Human), UniProt Q5JUK3)
Assay: KCNT1-WT-Basal - Patch Clamp Assay
Type: cell-based
Conditions: tetracycline inducible HEK-TREX cell line; SyncroPatch 384PE automated patch clamp; step to 0 mV; room temperature
Protocol: Inhibition of KCNT1 (KNa1.1, Slack) was evaluated using a tetracycline inducible cell line (HEK-TREX). Currents were recorded using the SyncroPatch 384PE automated, patch clamp system. Pulse generation and data collection were performed with PatchController384 V1.3.0 and DataController384 V1.2.1 (Nanion Technologies). The access resistance and apparent membrane capacitance were estimated using built-in protocols. Current were recorded in perforated patch mode (10 µM escin) from a population of cells. The cells were lifted, triturated, and resuspended at 800,000 cells/ml. The cells were allowed to recover in the cell hotel prior to experimentation. Currents were recorded at room temperature. The external solution contained the following (in mM): NaCl 105, NMDG 40, KC1 4, MgC12 1, CaC12 5 and HEPES 10 (pH = 7.4, Osmolarity ~300 mOsm). The extracellular solution was used as the wash, reference and compound delivery solution. The internal solution contained the following (in mM): NaCl 70, KF 70, KC1 10, EGTA 5, HEPES 5 and Escin 0.01 (pH = 7.2, Osmolarity ~295 mOsm). Escin is made at a 5 mM stock in water, aliquoted, and stored at -20° C. The compound plate was created at 2x concentrated in the extracellular solution. The compound was diluted to 1:2 when added to the recording well. The amount of DMSO in the extracellular solution was held constant at the level used for the highest tested concentration. A holding potential of -80 mV with a 100 ms step to 0 mV was used. Mean current was measured during the step to 0 mV. […] The average mean current from 3 sweeps was calculated and the % inhibition of each compound was calculated. The % Inhibition as a function of the compound concentration was fit with a Hill equation to derive IC50, slope, min and max parameters. If KCNT1 inhibition was less than 50% at the highest tested concentration or if an IC50 could not be calculated, then a percent inhibition was reported in place of the IC50.
In this table, “A” indicates IC50 of less than or equal to 1 µM; “B” indicates inhibition of between 1 µM to 20 µM; and “C” indicates inhibition of greater than or equal to 20 µM.

KCNT1 (KNa1.1, Slack), sequence (Q5JUK3 whole entry): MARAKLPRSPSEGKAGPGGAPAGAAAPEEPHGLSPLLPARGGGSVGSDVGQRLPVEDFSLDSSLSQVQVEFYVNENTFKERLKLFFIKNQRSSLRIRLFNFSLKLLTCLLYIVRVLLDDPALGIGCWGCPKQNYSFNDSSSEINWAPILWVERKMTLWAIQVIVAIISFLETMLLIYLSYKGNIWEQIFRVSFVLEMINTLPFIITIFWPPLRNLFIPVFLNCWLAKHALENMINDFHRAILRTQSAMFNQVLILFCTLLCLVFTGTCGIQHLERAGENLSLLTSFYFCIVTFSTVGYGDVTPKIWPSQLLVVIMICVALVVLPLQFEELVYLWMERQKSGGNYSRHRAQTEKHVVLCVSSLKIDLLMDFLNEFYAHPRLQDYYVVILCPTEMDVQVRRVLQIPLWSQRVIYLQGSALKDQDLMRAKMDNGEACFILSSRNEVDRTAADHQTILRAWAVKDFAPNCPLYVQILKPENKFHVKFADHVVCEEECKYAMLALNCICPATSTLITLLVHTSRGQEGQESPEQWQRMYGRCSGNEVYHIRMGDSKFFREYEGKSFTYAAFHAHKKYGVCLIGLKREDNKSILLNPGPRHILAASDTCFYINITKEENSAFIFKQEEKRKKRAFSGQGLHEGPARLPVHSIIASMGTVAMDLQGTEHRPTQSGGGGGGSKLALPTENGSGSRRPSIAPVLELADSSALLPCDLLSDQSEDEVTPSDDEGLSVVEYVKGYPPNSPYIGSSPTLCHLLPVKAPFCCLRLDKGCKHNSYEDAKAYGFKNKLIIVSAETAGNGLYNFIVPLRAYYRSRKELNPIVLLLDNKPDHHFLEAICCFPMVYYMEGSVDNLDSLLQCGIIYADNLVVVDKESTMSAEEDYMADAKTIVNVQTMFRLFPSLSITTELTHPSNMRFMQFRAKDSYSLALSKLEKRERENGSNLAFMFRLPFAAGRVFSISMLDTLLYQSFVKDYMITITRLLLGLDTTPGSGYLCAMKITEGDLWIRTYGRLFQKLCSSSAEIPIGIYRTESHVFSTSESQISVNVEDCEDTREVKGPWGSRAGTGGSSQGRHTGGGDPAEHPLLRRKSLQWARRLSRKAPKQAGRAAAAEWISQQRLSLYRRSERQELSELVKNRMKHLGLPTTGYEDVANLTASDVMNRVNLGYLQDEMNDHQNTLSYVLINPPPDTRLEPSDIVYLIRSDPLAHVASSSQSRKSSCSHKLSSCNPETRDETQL

SMILES | IC50 [µM]
C[C@H](NC(=O)c1cc(C(F)(F)F)nn1C)c1cc(-c2ccnc(C(F)(F)F)c2)no1 (single isomer, unassigned) [Example 2] | ≤ 1
C[C@@H](NC(=O)c1cc(C(F)(F)F)nn1C)c1cc(-c2ccnc(C(F)(F)F)c2)no1 (single isomer, unassigned) [Example 3] | 1 to 20
C[C@H](NC(=O)c1cccc(Cl)c1)c1nc(-c2ccnc(C3CC3)c2)ns1 (single isomer, unassigned) [Example 6] | ≤ 1
C[C@@H](NC(=O)c1cccc(Cl)c1)c1nc(-c2ccnc(C3CC3)c2)ns1 (single isomer, unassigned) [Example 7] | ≤ 1
C[C@H](NC(=O)N1CCCCC1)c1cc(-c2ccnc(C(F)(F)F)c2)no1 (single isomer, unassigned) [Example 8] | ≥ 20
C[C@@H](NC(=O)N1CCCCC1)c1cc(-c2ccnc(C(F)(F)F)c2)no1 (single isomer, unassigned) [Example 9] | 1 to 20
C[C@@H](NC(=O)c1cc(C(F)(F)F)nn1C)c1nc(-c2ccnc(C(F)(F)F)c2)ns1 (single isomer, unassigned) [Example 10] | ≤ 1
C[C@H](NC(=O)c1cc(C(F)(F)F)nn1C)c1nc(-c2ccnc(C(F)(F)F)c2)ns1 (single isomer, unassigned) [Example 11] | ≤ 1
C[C@H](NC(=O)c1cc(C(F)(F)F)nn1C)c1nc(-c2ccnc(C3CC3)c2)ns1 (single isomer, unassigned) [Example 12] | ≤ 1
C[C@@H](NC(=O)c1cc(C(F)(F)F)nn1C)c1nc(-c2ccnc(C3CC3)c2)ns1 (single isomer, unassigned) [Example 13] | ≤ 1
C[C@H](NC(=O)c1ccccc1)c1cc(-c2ccnc(C3CC3)c2)no1 (single isomer, unassigned) [Example 14] | ≤ 1
C[C@@H](NC(=O)c1ccccc1)c1cc(-c2ccnc(C3CC3)c2)no1 (single isomer, unassigned) [Example 15] | 1 to 20
C[C@@H](NC(=O)c1cc(C(F)(F)F)nn1C)c1cc(-c2ccnc(C3CC3)c2)no1 (single isomer, unassigned) [Example 16] | ≤ 1
C[C@H](NC(=O)c1cc(C(F)(F)F)nn1C)c1cc(-c2ccnc(C3CC3)c2)no1 (single isomer, unassigned) [Example 17] | 1 to 20
C[C@H](NC(=O)c1cccc(Cl)c1)c1cc(-c2ccnc(C3CC3)c2)no1 (single isomer, unassigned) [Example 18] | 1 to 20
C[C@@H](NC(=O)c1cccc(Cl)c1)c1cc(-c2ccnc(C3CC3)c2)no1 (single isomer, unassigned) [Example 19] | ≤ 1
C[C@@H](NC(=O)c1cccc(Cl)c1)c1cc(-c2ccnc(C(F)(F)F)c2)no1 (single isomer, unassigned) [Example 20] | 1 to 20
C[C@H](NC(=O)c1cccc(Cl)c1)c1cc(-c2ccnc(C(F)(F)F)c2)no1 (single isomer, unassigned) [Example 21] | ≤ 1
C[C@@H](NC(=O)c1ccccc1)c1cc(-c2ccnc(C(F)(F)F)c2)no1 (single isomer, unassigned) [Example 22] | ≥ 20
C[C@H](NC(=O)c1ccccc1)c1cc(-c2ccnc(C(F)(F)F)c2)no1 (single isomer, unassigned) [Example 23] | 1 to 20
CC(C)c1cc(C(=O)N[C@H](C)c2cc(-c3ccnc(C(F)(F)F)c3)no2)n(C)n1 (single isomer, unassigned) [Example 24] | 1 to 20
CC(C)c1cc(C(=O)N[C@@H](C)c2cc(-c3ccnc(C(F)(F)F)c3)no2)n(C)n1 (single isomer, unassigned) [Example 25, (N)-3-isopropyl-1-methyl-N-(1-(3-(2-(trifluoromethyl)pyridin-4-yl)isoxazol-5-yl)ethyl)-1H pyrazole-5-carboxamide] | ≤ 1
C[C@@H](NC(=O)C1CCCCC1)c1cc(-c2ccnc(C(F)(F)F)c2)no1 (single isomer, unassigned) [Example 26] | ≥ 20
